The target in the experiment is Nuclear receptor subfamily 1 group D member 1 (Homo sapiens) (UniProt P20393). Description: Rev-erbα–DNA interaction modulators – biochemical, FITC-DNA, fluorescence polarization, dose response (AID 1259321). The conditions noted are these: Rev-erb alpha-FITC-DNA binding. In general terms: Fluorescence polarisation rises when a labelled molecule tumbles more slowly, as on binding a larger partner.

These results are taken from PubChem BioAssay AID1259321 (Sanford-Burnham Center for Chemical Genomics, 2017).

Each structure is given as a SMILES string. pIC50: −log10 of the molar value. Calls of active or inactive are those of the source.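 The calls were made as follows: active = half-maximal concentration for changing protein binding to DNA, from the fitted dose curve, below 10 micromolar; inactive = the rest.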

Chain of Nuclear receptor subfamily 1 group D member 1 (Homo sapiens) (P20393 whole entry, looked up): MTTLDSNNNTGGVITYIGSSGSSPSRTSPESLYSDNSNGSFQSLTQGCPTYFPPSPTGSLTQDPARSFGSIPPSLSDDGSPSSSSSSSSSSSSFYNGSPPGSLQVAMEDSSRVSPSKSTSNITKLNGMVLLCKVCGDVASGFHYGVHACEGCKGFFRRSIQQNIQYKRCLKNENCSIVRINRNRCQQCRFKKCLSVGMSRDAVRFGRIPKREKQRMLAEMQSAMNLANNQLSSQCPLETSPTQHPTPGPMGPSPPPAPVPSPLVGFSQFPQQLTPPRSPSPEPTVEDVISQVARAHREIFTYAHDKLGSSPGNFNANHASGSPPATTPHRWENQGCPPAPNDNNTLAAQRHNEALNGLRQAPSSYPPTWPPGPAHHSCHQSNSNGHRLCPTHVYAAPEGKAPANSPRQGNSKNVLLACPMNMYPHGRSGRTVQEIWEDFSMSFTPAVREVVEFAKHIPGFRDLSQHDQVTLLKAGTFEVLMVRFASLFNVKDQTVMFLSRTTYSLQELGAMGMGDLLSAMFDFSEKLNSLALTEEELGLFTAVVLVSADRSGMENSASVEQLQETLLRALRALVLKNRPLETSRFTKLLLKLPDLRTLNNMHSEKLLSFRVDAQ

For the molecule `O=C(COc1ccccc1)Nc1nc2cc3c(cc2s1)OCCO3`, the negative logarithm of the IC50 (pIC50) is 5.37.
Consider `CC1=NN(c2ccccc2)C(=O)/C1=C\C=C1/N(C)c2ccccc2C1(C)C`, for which the IC50 is > 40 µM (inactive).
With `CN(C)/C=C1\C=C2C(=O)c3ccccc3N2C1=O`, the negative logarithm of the IC50 (pIC50) is 6.15.
Regarding `COc1cc2cc(C#N)c(SCC(=O)Nc3cc(C)on3)nc2cc1OC`, the IC50 entry was “inactive”.
With `CCCOc1ccc(/C(CC)=N/NC(=O)C2(C)CC2(Br)Br)cc1` (stereo unspecified), the IC50 entry was “inactive”.
Same read-out and setting: the same measure for `COc1ccc(NC(=O)/C(C#N)=C\c2ccc(N3CCOCC3)o2)cc1`: > 40 µM (inactive).
On to `COc1ccc(C(=O)Cn2cnc3ccc(Cl)cc3c2=O)cc1F`, for which the negative logarithm of the IC50 (pIC50) is 5.30.
`COCCN(Cc1cc2cc(C)ccc2n2nnnc12)C(=S)Nc1ccccc1C`: the pIC50 was 5.56.
Regarding `COC(=O)c1ccc(Cn2ccc3ccc(-c4ccc5ccn(C(=O)c6ccc(C)cc6)c5c4)cc32)cc1`, the pIC50 is 5.81.
Still for that read-out and setting: the same measure for `C=CCn1c(C)c(/C=C/c2cc[n+](C)cc2)c2ccccc21`: 5.00.
On the same count and under the same terms, the same measure for `CC(=O)c1sc(NC(=O)COc2ccc(Br)cc2)nc1C`: 5.36.
For the molecule `O=C(CCCn1c(=S)[nH]c2cc3c(cc2c1=O)OCO3)NCc1ccccc1Cl`, the IC50 entry is “inactive”.
For the molecule `Cc1cccc2cc(C(c3nnnn3Cc3ccccc3)N3CCN(c4ccccc4)CC3)c(=O)[nH]c12` (stereo unspecified), the pIC50 was 5.10.
On the same count and under the same terms, the same measure for `Nc1nc(-c2cccs2)c(-c2cccs2)s1`: 5.84; for `CCC(=O)c1cn(CC(=O)Nc2ccc(C)cc2C)c2ccccc12`: 5.87.
`Cc1cccc2cc(C#N)c(SCC(=O)N3CC(=O)Nc4ccccc43)nc12`: the IC50 result was “inactive”.
On to `O=C(COC(=O)c1sc2ccccc2c1Cl)Nc1ncc(Cl)cc1Cl`, for which the IC50 is > 40 µM (inactive).
Same read-out and setting: the same measure for `CN1C(=O)c2cc(NC(=O)Nc3ccccc3)ccc2OC[C@H]2O[C@@H](CC(=O)NC3CCC3)CC[C@@H]21`: “inactive”.
Consider `CNC(=O)c1ccsc1NC(=O)c1sc2ccccc2c1Cl`, for which the IC50 entry was “inactive”.
Regarding `CCn1cc(C2N3CC4(C)CN2CC(C)(C3)C4=O)c2ccccc21` (stereo unspecified), the pIC50 is 5.55.
On to `CC(=O)c1ccc(NC(=O)COC(=O)c2ccccc2Sc2ccccc2C#N)cc1`, for which the IC50 was > 40 µM (inactive).
Consider `CCOc1ccccc1NC(=O)CSC1=C(C#N)C(c2ccco2)C(C(=O)Nc2nc3ccccc3s2)=C(C)N1` (stereo unspecified), for which the negative logarithm of the IC50 (pIC50) is 5.35.
As to `CC1CCN(Cc2cc(=O)oc3ccc(C(C)C)cc23)CC1`, the negative logarithm of the IC50 (pIC50) is 5.01.
For the molecule `CCOC(=O)c1sc(NC(=O)c2ccc(S(=O)(=O)N(CC)CC)cc2)nc1C`, the IC50 result was “inactive”.
Same read-out and setting: the same measure for `Cc1sc2nc(SCC(=O)NCc3ccco3)n(CCc3ccccc3)c(=O)c2c1C`: > 40 µM (inactive); for `COc1ccc(-c2nn(C)c3sc(C(=O)NCc4ccco4)cc23)cc1OC`: > 40 µM (inactive).
Regarding `COc1ccc(C(=O)/C(C#N)=N/Nc2ccc([N+](=O)[O-])cc2)cc1`, the IC50 is > 40 µM (inactive).
In the case of `CCn1cc(/C=C/c2cc[n+](C)cc2)c2ccccc21`, the negative logarithm of the IC50 (pIC50) was 5.49.
Still for that read-out and setting: the same measure for `CCN(CC)c1ccc(/C=C2\C(=O)NC(=S)N(C)C2=O)o1`: 5.36.
As for `COC(=O)c1ccc(Cn2ccc3ccc(-c4ccc5ccn(C(=O)c6cccc(OC)c6)c5c4)cc32)cc1`, the IC50 result is “inactive”.
As to `COc1ccc(C(=O)Nc2nnc(Cc3cccs3)s2)cc1OC`, the IC50 entry was “inactive”.
In the case of `O=C(COc1ncnc2c(Cl)cc(Cl)cc12)NC1CCCCCC1`, the negative-log IC50 (pIC50) is 6.07.
Still for that read-out and setting: the same measure for `COc1ccc(/C=C/C(=O)NC(=S)N2CCN(c3ccccc3OC)CC2)cc1`: 5.78.
Take `CNC(=O)COc1ccccc1C(=O)Nc1ccc2c(c1)oc1ccccc12`: the IC50 is > 40 µM (inactive).
In the case of `Cc1cccc(C)c1NC(=O)COc1ccccc1C(=O)Nc1ccc(Br)cn1`, the pIC50 was 5.36.
As to `CCN1/C(=C/c2ccc3cc(C)ccc3[n+]2CC)Sc2ccccc21`, the IC50 was > 40 µM (inactive).
Take `COc1ccc(CNC(=O)C2CCC(CNS(=O)(=O)c3cccc4nsnc34)CC2)cc1` (stereo unspecified): the pIC50 is 5.09.
On to `COc1ccc(NC(=O)NNC(=O)COc2ccc3cc(Br)ccc3c2)c(OC)c1`, for which the IC50 was > 40 µM (inactive).
On to `CCc1nc(SCC(=O)NCCc2ccccc2)c2oc3ccccc3c2n1`, for which the negative logarithm of the IC50 (pIC50) is 5.80.
As to `Cc1ccc2[nH]cc(/C=C/c3cc[n+](C)cc3)c2c1`, the IC50 was > 40 µM (inactive).
As for `Nc1c2c(nc3ccccc13)CCN(Cc1ccccc1)C2`, the IC50 entry was “inactive”.
Still for that read-out and setting: the same measure for `CCN(CC)c1ccc2cc(C=O)c(=O)oc2c1`: > 40 µM (inactive).
In the case of `Nc1ccc2nc3c(=O)n(C4CCCCC4)c(=O)[nH]c3nc2c1`, the negative-log IC50 (pIC50) is 5.20.
Regarding `CN1CCS/C1=C/C=C1/SC(=S)N(Cc2ccccc2)C1=O`, the IC50 result was “inactive”.
Same read-out and setting: the same measure for `Cc1ccc(NC(=O)CSc2nc3ncc(Br)cc3[nH]2)cc1C`: > 40 µM (inactive).
For the molecule `Cc1c(-c2ccc(Cl)cc2)oc(=O)c2c(N)n(-c3ccccc3)nc12`, the pIC50 is 5.40.
On the same count and under the same terms, the same measure for `Cc1ccc2nc(N3CCN(S(=O)(=O)c4ccc(C)c(Cl)c4)CC3)c(C#N)cc2c1`: 5.48; for `O=[N+]([O-])c1ccc(N(c2ccccc2)c2ccccc2)cc1`: 5.34.
For the molecule `Cc1ccc(-c2cc(C(F)F)nc3sc4c(=O)[nH]cnc4c23)cc1`, the pIC50 was 5.22.
On the same count and under the same terms, the same measure for `Cc1ccccc1OCC(=O)Nc1cccc2nsnc12`: 5.33; for `CC1(Cc2ccccc2OC(F)(F)F)C(=O)Nc2ccc(OC(F)(F)F)cc21` (stereo unspecified): 5.38.
For `N#CCCN(CCC#N)S(=O)(=O)c1ccc(C(=O)Nc2nc(-c3ccccc3)c(C(=O)c3ccccc3)s2)cc1`, the IC50 is > 40 µM (inactive).
Still for that read-out and setting: the same measure for `CCOc1ccc(S(=O)(=O)Nc2nc3ccccc3nc2-n2ccc(=NC(=O)c3ccccc3C)cc2)cc1`: > 40 µM (inactive).
Take `Cc1cc(C)c2nc(SCC(=O)Nc3cc(C)on3)c(C#N)cc2c1`: the pIC50 is 5.38.
Take `O=c1cc(-c2ccccc2Cl)oc2c(NS(=O)(=O)c3cccs3)ccc(O)c12`: the IC50 result was “inactive”.
On to `Cc1ccc(C(=O)CSc2nc3ccccc3c(=O)n2-c2ccccc2)s1`, for which the pIC50 was 5.11.
Take `O=C(Nc1nc(=O)c2ccccc2s1)c1ccc(Cl)cc1`: the IC50 was > 40 µM (inactive).
For the molecule `CN1CCS/C1=C\C=C1/SC(=S)N(CC(=O)O)C1=O`, the IC50 entry is “inactive”.
Still for that read-out and setting: the same measure for `O=c1oc2c3c4c(cc2c(C(F)(F)F)c1CCN1CCOCC1)CCCN4CCC3`: “inactive”; for `CN1C(=O)c2ccc(C(=O)Nc3ccc(Br)cn3)cc2C1=O`: > 40 µM (inactive).
Regarding `Cc1ccc(-n2nc3c(N4CCC(C(=O)NCCc5cccs5)CC4)nnc(C)c3c2C)cc1`, the pIC50 was 5.16.
Regarding `Cc1coc(NC(=O)CSc2nc(-c3ccc(Cl)cc3)cc(C(F)(F)F)c2C#N)n1`, the IC50 entry was “inactive”.
With `CCOC(=O)CC(=O)CSc1nc(-c2ccc3c(c2)OCO3)cc(C(F)(F)F)c1C#N`, the IC50 entry is “inactive”.
Regarding `CCCSc1nc(SCC(=O)NCc2ccccc2)c2c3c(sc2n1)COC(C)(CC)C3` (stereo unspecified), the IC50 is > 40 µM (inactive).
With `CCc1ccc(-c2nc(NC(=O)c3ccc(OCC(=O)Nc4ccc(F)cc4)c(OC)c3)sc2C)cc1`, the negative logarithm of the IC50 (pIC50) was 5.03.
As to `COCCCn1c(C(=O)NCCC2=CCCCC2)cc2c(=O)n3cccc(C)c3nc21`, the pIC50 is 5.11.
For the molecule `Fc1cccc2sc(Nc3nc4ccccc4s3)nc12`, the IC50 was > 40 µM (inactive).
Same read-out and setting: the same measure for `COC(=O)c1ccc(NC(=O)c2cc(Cl)ccc2OC)cc1`: “inactive”; for `Cc1c(C#N)c(N)nc2c3c(sc12)NC(=O)CC3c1ccc(Cl)cc1` (stereo unspecified): > 40 µM (inactive); for `Cc1ccc(NC(=O)CSc2nc3ccccc3nc2N2CCOCC2)c(C)c1`: “inactive”.
Turning to `N#Cc1c(N)nc(N2CCCC2)c(C#N)c1-c1ccc(Cl)cc1`, the negative-log IC50 (pIC50) is 5.30.
Turning to `CCN(CC)c1ccc(/C=C(\C#N)C(N)=S)cc1`, the IC50 entry was “inactive”.
Regarding `COc1ccc(Sc2nc3ccccc3n3c(C(F)(F)F)nnc23)cc1`, the negative logarithm of the IC50 (pIC50) was 5.52.
Turning to `Cc1nc(SCC(=O)Nc2ccc(F)cc2)c2oc3ccccc3c2n1`, the IC50 result was “inactive”.
As for `Oc1ccccc1N=Nc1nc(-c2ccccc2)c(-c2ccccc2)[nH]1`, the negative logarithm of the IC50 (pIC50) was 5.40.
For `Cc1cccc(NC(=O)C2CCCN(S(=O)(=O)c3cccc4nsnc34)C2)c1` (stereo unspecified), the negative-log IC50 (pIC50) is 5.66.
As to `Cc1ccc(-c2c(C#N)c(N)n(-c3ccc(Cl)cc3)c(=O)c2C#N)cc1`, the IC50 entry is “inactive”.
Turning to `CC(C)CC[n+]1ccccc1/C=C/c1ccc(N(C)C)cc1`, the IC50 entry was “inactive”.
Same read-out and setting: the same measure for `COc1ccccc1N(C)S(=O)(=O)c1ccc(C(=O)Nc2nc(C)c(C(C)=O)s2)cc1`: “inactive”; for `COc1ccc(/C=C2\SC(=O)N(CCC(=O)Nc3ccccc3)C2=O)cc1OC`: “inactive”.
`O=c1ccc2c(-c3ccccc3)c3ccc(O)cc3oc-2c1`: the IC50 result was “inactive”.
For the molecule `CCN(CC)C(=O)Cn1c(C)c(/C=C/c2cc[n+](C)cc2)c2ccccc21`, the negative-log IC50 (pIC50) was 5.34.
For the molecule `COc1ccc(CN(Cc2cc3cc(OC)c(OC)cc3[nH]c2=O)C(=O)NC2CCCCC2)cc1`, the negative-log IC50 (pIC50) is 5.46.
Take `O=C(O)CSc1c2ccccc2cc2ccccc12`: the IC50 is > 40 µM (inactive).
In the case of `Fc1c(F)c(C(F)(F)F)c(F)c(F)c1N1CCN(c2ccc3nnc(C(F)(F)F)n3n2)CC1`, the pIC50 was 5.77.
As for `Oc1c(C=Nc2cccc3cccnc23)sc2ccccc12`, the negative logarithm of the IC50 (pIC50) is 5.06.
Still for that read-out and setting: the same measure for `CC1(Cc2ccccc2C#N)C(=O)Nc2ccc(-c3ccccc3)cc21` (stereo unspecified): 5.20.
On the same count and under the same terms, the same measure for `O=C(CSc1nc2ccccc2nc1N1CCCCC1)N1CCN(S(=O)(=O)c2cc(Cl)ccc2Cl)CC1`: 5.31.
For the molecule `COc1ccccc1NC(=O)COC(=O)c1ccc2c(c1)OCCO2`, the pIC50 is 6.00.
Take `N#Cc1ccccc1N1CCN(C(=O)C2CCN(c3ncnc4c3sc3cccc(F)c34)CC2)CC1`: the negative-log IC50 (pIC50) was 5.35.
Still for that read-out and setting: the same measure for `CCOC(=O)Nc1ccc2c(COC(=O)CNS(=O)(=O)c3ccc(NC(C)=O)cc3)cc(=O)oc2c1`: 6.26.

Broadly, the pIC50 is the negative decadic logarithm of the IC50, by convention in mol/L. The term IC50 denotes the concentration needed to halve the response being measured.
